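Compound exposure: 48 hours, 5 concentrations, 96-well plates. TGI is the concentration that stops growth completely.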
Assays:
Experiment in all cases: NCI tumour cell line growth inhibition, 48 h
RXF 393 renal = system: RXF 393 renal
HL-60(TB) leukemia = system: HL-60(TB) leukemia
HS 578T breast = system: HS 578T breast
SF-295 CNS = system: SF-295 CNS
MDA-MB-231 breast = system: MDA-MB-231 breast
IGROV1 ovarian = system: IGROV1 ovarian
SK-MEL-28 melanoma = system: SK-MEL-28 melanoma
MALME-3M melanoma = system: MALME-3M melanoma
COLO 205 colon = system: COLO 205 colon
SN12C renal = system: SN12C renal
SNB-75 CNS = system: SNB-75 CNS
NCI/ADR-RES ovarian = system: NCI/ADR-RES ovarian
K-562 leukemia = system: K-562 leukemia
OVCAR-8 ovarian = system: OVCAR-8 ovarian
LOX IMVI melanoma = system: LOX IMVI melanoma
OVCAR-5 ovarian = system: OVCAR-5 ovarian
CAKI-1 renal = system: CAKI-1 renal
U251 CNS = system: U251 CNS
NCI-H460 lung = system: NCI-H460 lung
UACC-257 melanoma = system: UACC-257 melanoma
SR leukemia = system: SR leukemia
MOLT-4 leukemia = system: MOLT-4 leukemia
SW-620 colon = system: SW-620 colon
M14 melanoma = system: M14 melanoma
HT29 colon = system: HT29 colon
HCT-116 colon = system: HCT-116 colon
A549 NSCLC = system: A549 NSCLC
SNB-19 CNS = system: SNB-19 CNS
OVCAR-4 ovarian = system: OVCAR-4 ovarian
UO-31 renal = system: UO-31 renal
HOP-62 NSCLC = system: HOP-62 NSCLC
MDA-N = system: MDA-N
HOP-92 NSCLC = system: HOP-92 NSCLC
UACC-62 melanoma = system: UACC-62 melanoma
786-0 renal = system: 786-0 renal
HCC-2998 colon = system: HCC-2998 colon
DU-145 prostate = system: DU-145 prostate
SF-539 CNS = system: SF-539 CNS
CCRF-CEM leukemia = system: CCRF-CEM leukemia
NCI-H522 lung = system: NCI-H522 lung
ACHN renal = system: ACHN renal
TK-10 renal = system: TK-10 renal
OVCAR-3 ovarian = system: OVCAR-3 ovarian
EKVX NSCLC = system: EKVX NSCLC
SK-MEL-5 melanoma = system: SK-MEL-5 melanoma
SK-MEL-2 melanoma = system: SK-MEL-2 melanoma
KM12 colon = system: KM12 colon
RPMI-8226 leukemia = system: RPMI-8226 leukemia
MDA-MB-435 = system: MDA-MB-435
HCT-15 colon = system: HCT-15 colon
T-47D breast = system: T-47D breast
A498 renal = system: A498 renal
MCF7 breast = system: MCF7 breast
NCI-H226 lung = system: NCI-H226 lung
BT-549 breast = system: BT-549 breast
PC-3 prostate = system: PC-3 prostate
SK-OV-3 ovarian = system: SK-OV-3 ovarian
NCI-H23 lung = system: NCI-H23 lung
SF-268 CNS = system: SF-268 CNS

In the case of CS(=O)(=O)C(=Cc1ccccc1Cl)S(C)(=O)=O, the TGI (RXF 393 renal) is reported as greater than 100 µM, the TGI (HL-60(TB) leukemia) is reported as greater than 100 µM and the TGI (HS 578T breast) is reported as greater than 100 µM. For the same compound, the TGI (SF-295 CNS) was greater than 46.4 µM, the TGI (MDA-MB-231 breast) was greater than 100 µM and the TGI (IGROV1 ovarian) was greater than 100 µM. The TGI (SK-MEL-28 melanoma) was greater than 100 µM, the TGI (MALME-3M melanoma) was greater than 100 µM and the TGI (COLO 205 colon) was greater than 100 µM. For the same compound, the TGI (SN12C renal) was greater than 100 µM, the TGI (SNB-75 CNS) was greater than 100 µM and the TGI (NCI/ADR-RES ovarian) was greater than 100 µM. The TGI (K-562 leukemia) was greater than 100 µM, the TGI (OVCAR-8 ovarian) was greater than 100 µM and the TGI (LOX IMVI melanoma) was greater than 100 µM. The TGI (OVCAR-5 ovarian) was greater than 100 µM, the TGI (CAKI-1 renal) was greater than 100 µM and the TGI (U251 CNS) was greater than 100 µM. The TGI (NCI-H460 lung) was greater than 100 µM, the TGI (UACC-257 melanoma) was greater than 100 µM and the TGI (SR leukemia) was greater than 100 µM. It also gave a TGI (MOLT-4 leukemia) greater than 100 µM, a TGI (SW-620 colon) greater than 100 µM and a TGI (M14 melanoma) greater than 100 µM. The TGI (HT29 colon) was greater than 100 µM, the TGI (HCT-116 colon) was greater than 100 µM and the TGI (A549 NSCLC) was greater than 100 µM. The TGI (SNB-19 CNS) was greater than 100 µM, the TGI (OVCAR-4 ovarian) was greater than 100 µM and the TGI (UO-31 renal) was greater than 100 µM. For the same compound, the TGI (HOP-62 NSCLC) was greater than 100 µM, the TGI (MDA-N) was greater than 46.4 µM and the TGI (HOP-92 NSCLC) was greater than 100 µM. The TGI (UACC-62 melanoma) was greater than 100 µM, the TGI (786-0 renal) was greater than 100 µM and the TGI (HCC-2998 colon) was greater than 100 µM. The TGI (DU-145 prostate) was greater than 100 µM, the TGI (SF-539 CNS) was greater than 100 µM and the TGI (CCRF-CEM leukemia) was greater than 100 µM. It also gave a TGI (NCI-H522 lung) greater than 100 µM, a TGI (ACHN renal) greater than 100 µM and a TGI (TK-10 renal) greater than 100 µM. For the same compound, the TGI (OVCAR-3 ovarian) was greater than 100 µM, the TGI (EKVX NSCLC) was greater than 100 µM and the TGI (SK-MEL-5 melanoma) was greater than 100 µM. It also gave a TGI (SK-MEL-2 melanoma) greater than 100 µM, a TGI (KM12 colon) greater than 46.4 µM and a TGI (RPMI-8226 leukemia) greater than 100 µM. It also gave a TGI (MDA-MB-435) greater than 100 µM, a TGI (HCT-15 colon) greater than 100 µM and a TGI (T-47D breast) greater than 100 µM. It also gave a TGI (A498 renal) greater than 100 µM, a TGI (MCF7 breast) greater than 100 µM and a TGI (NCI-H226 lung) greater than 100 µM. For the same compound, the TGI (BT-549 breast) was greater than 100 µM, the TGI (PC-3 prostate) was greater than 100 µM and the TGI (SK-OV-3 ovarian) was greater than 100 µM. For the same compound, the TGI (NCI-H23 lung) was greater than 100 µM and the TGI (SF-268 CNS) was greater than 100 µM.
CCCNc1[nH]c(C(C)=O)c(N)c1C(=S)Nc1ccccc1 gave a TGI (RXF 393 renal) of 65.3 µM, a TGI (HL-60(TB) leukemia) greater than 100 µM and a TGI (HS 578T breast) greater than 100 µM. For the same compound, the TGI (SF-295 CNS) was greater than 100 µM, the TGI (MDA-MB-231 breast) was greater than 100 µM and the TGI (IGROV1 ovarian) was greater than 100 µM. The TGI (SK-MEL-28 melanoma) was 68.3 µM, the TGI (MALME-3M melanoma) was 83.9 µM and the TGI (COLO 205 colon) was greater than 100 µM. It also gave a TGI (SN12C renal) greater than 100 µM, a TGI (SNB-75 CNS) greater than 100 µM and a TGI (NCI/ADR-RES ovarian) greater than 100 µM. It also gave a TGI (K-562 leukemia) greater than 100 µM, a TGI (OVCAR-8 ovarian) greater than 100 µM and a TGI (LOX IMVI melanoma) of 63.4 µM. For the same compound, the TGI (OVCAR-5 ovarian) was greater than 100 µM, the TGI (CAKI-1 renal) was greater than 100 µM and the TGI (U251 CNS) was greater than 100 µM. For the same compound, the TGI (NCI-H460 lung) was greater than 100 µM, the TGI (UACC-257 melanoma) was greater than 100 µM and the TGI (SR leukemia) was greater than 100 µM. For the same compound, the TGI (MOLT-4 leukemia) was greater than 100 µM, the TGI (SW-620 colon) was greater than 100 µM and the TGI (M14 melanoma) was 36.8 µM. It also gave a TGI (HT29 colon) of 53.2 µM, a TGI (HCT-116 colon) greater than 100 µM and a TGI (A549 NSCLC) greater than 100 µM. For the same compound, the TGI (SNB-19 CNS) was greater than 100 µM, the TGI (OVCAR-4 ovarian) was 74.5 µM and the TGI (UO-31 renal) was greater than 100 µM. The TGI (HOP-62 NSCLC) was greater than 100 µM, the TGI (MDA-N) was greater than 100 µM and the TGI (HOP-92 NSCLC) was greater than 100 µM. It also gave a TGI (UACC-62 melanoma) of 41.6 µM, a TGI (786-0 renal) of 75.6 µM and a TGI (HCC-2998 colon) greater than 100 µM. The TGI (DU-145 prostate) was greater than 100 µM, the TGI (SF-539 CNS) was 65.4 µM and the TGI (CCRF-CEM leukemia) was greater than 100 µM. For the same compound, the TGI (NCI-H522 lung) was greater than 100 µM, the TGI (ACHN renal) was greater than 100 µM and the TGI (TK-10 renal) was greater than 100 µM. For the same compound, the TGI (OVCAR-3 ovarian) was greater than 100 µM, the TGI (EKVX NSCLC) was greater than 100 µM and the TGI (SK-MEL-5 melanoma) was 52.3 µM. For the same compound, the TGI (SK-MEL-2 melanoma) was greater than 100 µM, the TGI (KM12 colon) was greater than 100 µM and the TGI (MDA-MB-435) was 55.9 µM. For the same compound, the TGI (HCT-15 colon) was greater than 100 µM, the TGI (T-47D breast) was greater than 100 µM and the TGI (A498 renal) was greater than 100 µM. It also gave a TGI (MCF7 breast) of 45.4 µM, a TGI (NCI-H226 lung) of 75 µM and a TGI (BT-549 breast) of 68.4 µM. It also gave a TGI (PC-3 prostate) greater than 100 µM, a TGI (SK-OV-3 ovarian) greater than 100 µM and a TGI (NCI-H23 lung) greater than 100 µM. The TGI (SF-268 CNS) was 86.8 µM.
With CC[C@H](CCCCC1CC[C@@H]2CC(=O)C[C@H]12)OC (stereo partly specified) the TGI (RXF 393 renal) was greater than 100 µM, the TGI (HL-60(TB) leukemia) was greater than 100 µM and the TGI (HS 578T breast) was greater than 100 µM. The TGI (SF-295 CNS) was greater than 100 µM, the TGI (MDA-MB-231 breast) was greater than 100 µM and the TGI (IGROV1 ovarian) was greater than 100 µM. For the same compound, the TGI (SK-MEL-28 melanoma) was greater than 100 µM, the TGI (MALME-3M melanoma) was greater than 100 µM and the TGI (COLO 205 colon) was greater than 100 µM. It also gave a TGI (SN12C renal) greater than 100 µM, a TGI (SNB-75 CNS) greater than 100 µM and a TGI (NCI/ADR-RES ovarian) greater than 100 µM. It also gave a TGI (K-562 leukemia) greater than 100 µM, a TGI (OVCAR-8 ovarian) greater than 100 µM and a TGI (LOX IMVI melanoma) greater than 100 µM. For the same compound, the TGI (OVCAR-5 ovarian) was greater than 100 µM, the TGI (CAKI-1 renal) was greater than 100 µM and the TGI (U251 CNS) was greater than 100 µM. It also gave a TGI (NCI-H460 lung) greater than 100 µM, a TGI (UACC-257 melanoma) greater than 100 µM and a TGI (SR leukemia) greater than 100 µM. The TGI (MOLT-4 leukemia) was greater than 100 µM, the TGI (SW-620 colon) was greater than 100 µM and the TGI (M14 melanoma) was greater than 100 µM. It also gave a TGI (HT29 colon) greater than 100 µM, a TGI (HCT-116 colon) greater than 100 µM and a TGI (A549 NSCLC) greater than 100 µM. The TGI (SNB-19 CNS) was greater than 100 µM, the TGI (OVCAR-4 ovarian) was greater than 100 µM and the TGI (UO-31 renal) was greater than 100 µM. The TGI (HOP-62 NSCLC) was greater than 100 µM, the TGI (MDA-N) was greater than 100 µM and the TGI (HOP-92 NSCLC) was greater than 100 µM. For the same compound, the TGI (UACC-62 melanoma) was greater than 100 µM, the TGI (786-0 renal) was greater than 100 µM and the TGI (HCC-2998 colon) was greater than 100 µM. The TGI (DU-145 prostate) was greater than 100 µM, the TGI (SF-539 CNS) was greater than 100 µM and the TGI (CCRF-CEM leukemia) was greater than 100 µM. The TGI (NCI-H522 lung) was greater than 100 µM, the TGI (ACHN renal) was greater than 100 µM and the TGI (TK-10 renal) was greater than 100 µM. For the same compound, the TGI (OVCAR-3 ovarian) was greater than 100 µM, the TGI (EKVX NSCLC) was greater than 100 µM and the TGI (SK-MEL-5 melanoma) was greater than 100 µM. For the same compound, the TGI (SK-MEL-2 melanoma) was greater than 100 µM, the TGI (KM12 colon) was greater than 100 µM and the TGI (RPMI-8226 leukemia) was greater than 100 µM. The TGI (MDA-MB-435) was greater than 100 µM, the TGI (HCT-15 colon) was greater than 100 µM and the TGI (T-47D breast) was greater than 100 µM. The TGI (A498 renal) was greater than 100 µM, the TGI (MCF7 breast) was greater than 100 µM and the TGI (NCI-H226 lung) was greater than 100 µM. The TGI (BT-549 breast) was greater than 100 µM, the TGI (PC-3 prostate) was greater than 100 µM and the TGI (SK-OV-3 ovarian) was greater than 100 µM. The TGI (NCI-H23 lung) was greater than 100 µM and the TGI (SF-268 CNS) was greater than 100 µM.
